The text below walks through data of PMC9102502, “The Influence of Selected Antipsychotic Drugs on Biochemical Aspects of Alzheimer’s Disease” (International Journal of Molecular Sciences, 2022).

SMILES strings stand for the structures. Read-outs that look alike come from different tables or passages of the source.

Data set [1] addresses T1, recombinant human β-amyloid (1–42) (Homo sapiens, UniProt P05067).
T1 construct: recombinant human β-amyloid (1–42; ultrapure); purchased Sigma-Aldrich (St. Louis, MO, USA)
The data set can be described thus: Beta-amyloid aggregation, Thioflavin T fluorescence. Type of data set: biochemical. The conditions noted are these: 24 and 48 h; both tested concentrations. A digest of the protocol: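 Aβ42 (DMSO stock, pre-warmed 15 min at 37 °C) at 20 μmol/L final incubated with antipsychotics at TPC and 1/2 × TPC, with 5 µmol/L ThT added. Fluorescence (Ex/Em 440/484 nm, room temperature) read at 10, 30, 60, 90 min, 24 and 48 h; peptide-only control set as 100% aggregation.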

Data set [2] concerns human erythrocytes. The data set can be described thus: Methemoglobin formation in RBC with AAPH. The data set is classed as cell-based. The following applies: 24 h, AAPH control 78.1%. The method, then:
The blood samples were centrifuged (3000 rpm, 10 min, 20 °C, Micro 22 R centrifuge, Hettich Zentrifugen, Tuttlingen, Germany) to separate erythrocytes from the plasma and washed three times with 0.9% saline (NaCl). […] The erythrocytes were suspended in 0.9% saline. As control of basal hemolysis, erythrocytes were incubated with 0.9% NaCl. For total hemolysis control erythrocytes were incubated with 2.0% v/v Triton X-100. Incubation with Triton X-100 and K4[Fe(CN)6] (at concentration 50 g/L) was performed to control methemoglobin (MetHb) formation. Moreover, an antioxidant control containing ascorbic acid (AA) at a concentration of 10 µg/mL was prepared, while AAPH at a concentration of 50 mmol/L was an oxidizing agent. Antipsychotics at concentrations equaling their maximum therapeutic plasma concentrations (TPCmax), as well as 5-fold higher (5 × TPCmax) and 5-fold lower than TPCmax (1/5 × TPCmax), and the oxidizing agent AAPH at a concentration of 50 mmol/L, were added to 2% RBC suspension. Controls and tested samples were incubated at 37 °C. […] For each measurement, 0.5 mL samples were taken from incubated Eppendorf tubes and centrifuged (3000 rpm, 10 min). […] The percentage of hemolysis was calculated with the following formula:Hemolysis (%) = (Asample/Atotal hemolysis) × 100%(1) where Asample—absorbance of the test sample; Atotal hemolysis—the absorbance of the reference sample with 2% Triton X solution, corresponding to complete hemolysis.

Data set [3] has as its system human erythrocytes. In words: RBC hemolysis, compounds alone. The data set is classed as cell-based. The conditions noted are these: 2% human erythrocyte (RBC) suspension, read-out: increase of disintegration of the erythrocyte membrane (hemolysis). The method, then: (§1) The blood samples were centrifuged (3000 rpm, 10 min, 20 °C, Micro 22 R centrifuge, Hettich Zentrifugen, Tuttlingen, Germany) to separate erythrocytes from the plasma and washed three times with 0.9% saline (NaCl). […] The erythrocytes were suspended in 0.9% saline. As control of basal hemolysis, erythrocytes were incubated with 0.9% NaCl. For total hemolysis control erythrocytes were incubated with 2.0% v/v Triton X-100. Incubation with Triton X-100 and K4[Fe(CN)6] (at concentration 50 g/L) was performed to control methemoglobin (MetHb) formation. Moreover, an antioxidant control containing ascorbic acid (AA) at a concentration of 10 µg/mL was prepared, while AAPH at a concentration of 50 mmol/L was an oxidizing agent. Antipsychotics at concentrations equaling their maximum therapeutic plasma concentrations (TPCmax), as well as 5-fold higher (5 × TPCmax) and 5-fold lower than TPCmax (1/5 × TPCmax), and the oxidizing agent AAPH at a concentration of 50 mmol/L, were added to 2% RBC suspension. Controls and tested samples were incubated at 37 °C. […] The percentage of hemolysis was calculated with the following formula:Hemolysis (%) = (Asample/Atotal hemolysis) × 100%(1) where Asample—absorbance of the test sample; Atotal hemolysis—the absorbance of the reference sample with 2% Triton X solution, corresponding to complete hemolysis.

The test system of the next data set is astrocytes. The data set can be described thus: WST-1 viability under AAPH-induced oxidative stress, astrocytes. Type of data set: cell-based, human. The conditions noted are these: benperidol 5 and 10 μg/L, penfluridol 12.5 μg/L, pimozide 15 μg/L, promazine 25 and 50 μg/L. The method, boiled down: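 HUVEC and astrocytes grown to confluence, given antipsychotics at ½ × TPCmax and TPCmax for 1 h, then AAPH (17.5 mmol/L HUVEC; 15.0 mmol/L astrocytes) for 24 h at 37 °C; AA 10 μg/mL as antioxidant control. WST-1 read at 450 nm after 90 min (HUVEC) or 60 min (astrocytes); viability as % of control.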
Background: Formazan colour is commonly taken as a measure of viable cells.

Data set [4] has as its system human erythrocytes. In words: Methemoglobin formation in RBC, compounds alone. The following applies: 250 μg/L. Type of data set: cell-based. The method, then:
as §1

Data set [5] has as its target T2, human erythrocyte acetylcholinesterase (Homo sapiens, UniProt P22303).
T2 construct: solution of hemolyzed erythrocytes diluted 400-fold; from tissue; host or cells: hemolyzed erythrocytes from blood of healthy human donors
In words: AChE inhibition, modified Ellman's method. The data set is classed as biochemical. The following applies: for AChE reaction velocity: control 0.259 ± 0.013 A/min.

The next data set addresses BuChE (Homo sapiens, UniProt P06276). In words: Kinetic parameters of enzymatic reaction (Hanes–Woolf), BuChE. Type of data set: biochemical. Also on record: The solution of plasma 200-fold diluted with 0.9% NaCl; from tissue; host or cells: citrated plasma from blood of healthy human donors. The method, then:
Kinetic parameters were obtained on the basis of three individual experiments carried out on different biological materials. For this purpose, various concentrations of substrates (ATC and BTC) were used in experiments. The type of inhibition and kinetic parameters of enzymatic reactions were obtained by linear regression using the Hanes–Woolf equations.
AChE SI (selectivity index) was calculated by using the following formula: SI = IC50 of BuChE/IC50 of AChE. However, BuChE SI was defined as IC50 of AChE/IC50 of BuChE. Maximal velocity (Vmax) and the Michaelis constant (Km) were calculated with the use of linear regression—according to the Hanes–Woolf plot.

For data set [6], the target named is T3, human plasma butyrylcholinesterase (Homo sapiens, UniProt P06276).
T3 construct: The solution of plasma 200-fold diluted with 0.9% NaCl; from tissue; host or cells: citrated plasma from blood of healthy human donors
In words: BuChE inhibition, modified Ellman's method. The data set is classed as biochemical. The conditions noted are these: experimental data, mean ± SD, n = 6–9. A general note: Ellman's reagent forms a yellow product with free thiols.

Sequence of BuChE (P06276 29-602): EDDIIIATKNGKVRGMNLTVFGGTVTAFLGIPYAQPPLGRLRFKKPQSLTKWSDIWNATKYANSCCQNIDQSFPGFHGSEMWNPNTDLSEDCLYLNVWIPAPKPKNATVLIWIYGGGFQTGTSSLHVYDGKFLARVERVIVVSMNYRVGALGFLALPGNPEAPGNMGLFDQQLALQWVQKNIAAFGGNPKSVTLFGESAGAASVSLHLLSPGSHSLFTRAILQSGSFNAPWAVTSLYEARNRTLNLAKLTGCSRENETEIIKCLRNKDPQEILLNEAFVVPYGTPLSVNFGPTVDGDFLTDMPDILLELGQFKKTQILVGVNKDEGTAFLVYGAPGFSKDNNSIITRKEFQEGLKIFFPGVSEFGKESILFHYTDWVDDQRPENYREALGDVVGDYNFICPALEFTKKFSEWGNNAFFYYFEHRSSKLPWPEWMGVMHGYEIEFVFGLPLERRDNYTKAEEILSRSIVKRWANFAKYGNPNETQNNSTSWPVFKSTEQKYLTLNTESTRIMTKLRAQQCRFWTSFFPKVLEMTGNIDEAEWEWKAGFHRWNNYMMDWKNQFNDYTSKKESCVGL
T2 sequence (P22303 32-617 isoform P22303-2 limits assumed): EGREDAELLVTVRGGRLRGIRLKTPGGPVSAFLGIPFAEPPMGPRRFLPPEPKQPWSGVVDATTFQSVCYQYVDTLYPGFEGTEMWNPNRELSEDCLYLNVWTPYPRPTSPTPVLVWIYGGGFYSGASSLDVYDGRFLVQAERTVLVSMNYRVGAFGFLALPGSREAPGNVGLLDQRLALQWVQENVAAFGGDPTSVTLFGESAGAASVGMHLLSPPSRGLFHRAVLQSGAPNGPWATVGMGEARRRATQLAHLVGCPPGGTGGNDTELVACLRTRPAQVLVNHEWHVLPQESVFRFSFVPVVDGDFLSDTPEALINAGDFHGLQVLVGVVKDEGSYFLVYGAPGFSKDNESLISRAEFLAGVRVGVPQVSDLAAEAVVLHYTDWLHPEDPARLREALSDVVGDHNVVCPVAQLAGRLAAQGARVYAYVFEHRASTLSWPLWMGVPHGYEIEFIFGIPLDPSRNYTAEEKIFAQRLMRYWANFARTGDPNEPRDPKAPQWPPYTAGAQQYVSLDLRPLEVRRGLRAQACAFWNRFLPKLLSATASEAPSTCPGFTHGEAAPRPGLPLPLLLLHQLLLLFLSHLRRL
T3 sequence (P06276 29-602): as the sequence (P06276 29-602) above
T1 sequence (P05067 672-713 limits assumed): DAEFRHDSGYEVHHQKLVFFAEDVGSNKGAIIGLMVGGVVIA

The IC50 is the concentration at which inhibition is half-maximal. `CN(C)CCCN1c2ccccc2Sc2ccccc21` [Promazine, promazine]: the “effect on Aβ aggregation after a longer incubation time” value in data set [1] is “substantially inhibit”. Moreover, the “methemoglobin formation with AAPH” value with human erythrocytes [2] (10 μg/L) came out at 60.7%; with human erythrocytes [2] (50 μg/L), 54.5%. Also, the hemolysis at 5 h, 250 μg/L in the data set on human erythrocytes [3] (5 h of incubation) was greater than 45%. Also, in the data set with human erythrocytes [3] (24 h of incubation), the hemolysis at 24 h, 250 μg/L was greater than 59%. Also, the “astrocyte viability compared with the control (pure AAPH)” value in the data set on astrocytes is given as “statistically significant increase”. The formation of methemoglobin stood at 39% with human erythrocytes [4] (5 h of incubation) and 64% in the data set with human erythrocytes [4] (24 h of incubation). Further, the AChE reaction velocity in data set [5] (100 µg/L) amounted to 0.245 ± 0.015 A/min; in data set [5] (200 µg/L), 0.232 ± 0.016 A/min. Further, the IC50 was greater than 2 µM in data set [5] (theoretical values calculated on the basis of extrapolated plots), 0.186 µM in data set [6] (IC50 BuChE) and 0.19 ± 0.02 µM in data set [6] (read-out: IC50 BuChE). Further, the “Vmax(i) BuChE” value at BuChE (compound at its IC50) came to 0.144 ± 0.036 A/min; on BuChE (compound at ½ IC50), 0.192 ± 0.059 A/min. In addition, the “type of inhibition of BuChE” value at BuChE (from Km(i), Vmax(i) vs Km, Vmax, mixed inhibition) was “same type of inhibition”.
